Source: PubChem BioAssay (NCI)
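Assay format: 96-well plates, 48-hour exposure. TGI denotes the concentration required for complete inhibition of growth.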

Columns and labels:
Assay in all cases: NCI anticancer screen, dose series, 48 h
[1] = system: HCT-15 colon
[2] = system: MOLT-4 leukemia
[3] = system: NCI-H522 lung
[4] = system: MDA-MB-435
[5] = system: COLO 205 colon
[6] = system: SNB-19 CNS
[7] = system: MALME-3M melanoma
[8] = system: NCI-H460 lung
[9] = system: ACHN renal
[10] = system: A498 renal
[11] = system: MCF7 breast

SMILES | TGI [1] [µM] | TGI [2] [µM] | TGI [3] [µM] | TGI [4] [µM] | TGI [5] [µM] | TGI [6] [µM] | TGI [7] [µM] | TGI [8] [µM] | TGI [9] [µM] | TGI [10] [µM] | TGI [11] [µM]
CC(=O)N(C(C)=O)c1ncc(-n2nc(-c3ccccc3)cc2-c2ccccc2)c(-c2ccccc2)n1 | > 10 | > 10 | > 10 | > 10 | > 10 | > 10 | > 10 | > 10 | > 10 | > 10 | > 10
O=[N+]([O-])C[C@@]12O[C@]3(O)C4C5CC(C6C5C3C61)C42 (stereo partly specified) | > 100 | > 100 | > 100 | > 100 | > 100 | > 100 | > 100 | > 100 | > 100 | > 100 | > 100
[N-]=[N+]=Nc1c([N+](=O)[O-])c(=O)n(-c2ccccc2)c2ccccc12 | 64.6 | 59.1 | > 100 | 47 | 42.3 | > 100 | 35 | > 100 | 85.5 | > 100 | 67
O=C1c2ccccc2C(=O)c2c(NCC(O)CO)ccc(NCC(O)CO)c21 (stereo unspecified) | > 100 | > 100 | > 100 | > 100 | > 100 | > 100 | > 100 | > 100 | > 100 | > 100 | > 100
COC(=O)C1=C(OC(=O)/C(=C/c2ccc(Cl)cc2)c2ccc(Cl)cc2)C(C(=O)OC)[C@@]2(O)[C@@H](C(=O)OC)[C@H](C)C[C@@H]1[C@@H]2C(=O)OC (stereo partly specified) | > 100 | 98.8 | > 67.3 | > 100 | > 100 | > 100 | > 100 | > 100 | > 100 | > 100 | > 100
CO[C@@]12C[C@@H](C)C3=CCC(C)=C3CC1=C(C)C(=O)O2 | > 100 | > 100 |  | > 100 | > 100 | > 100 | > 100 | > 100 | > 100 | > 100 | 
COc1cccc(C(=O)Oc2ccc(OS(=O)(=O)c3ccc(C)cc3)cc2)c1C#N | > 100 | > 100 | > 100 | > 100 | > 100 | > 100 | > 100 | > 100 | > 100 |  | > 100
CC1(C)CC(=O)C(C=NC(=S)c2ccccc2)=C(O)C1 | > 100 | > 100 | > 100 | > 100 | > 100 | > 100 |  | > 100 | > 100 |  | > 100
O=[N+]([O-])c1ccc2[nH]c(=S)[nH]c(=S)c2c1 | > 100 | > 100 | > 100 | > 100 | > 100 | > 100 | > 100 | > 100 | > 100 | > 100 | > 100
C=CCn1c(N)c(C#N)c(C#N)c1-c1ccccc1 | > 100 | > 100 | > 100 | > 100 | > 100 | > 100 | > 100 |  | > 100 | > 100 | > 100
COC(=O)C1=C(C(=O)OC)N(c2ccc(OC)cc2[N+](=O)[O-])C(c2ccc(C)cc2)=CC1c1ccc(OC)cc1OC (stereo unspecified) | 57.9 | 55.2 | 57.5 | > 100 | 20.8 | > 95.6 | > 77.4 | 98.7 | > 100 | 46.3 | > 100
O=C1Nc2cccc(Cl)c2/C1=C\c1c(Cl)nc2n1CCS2 | > 100 | > 100 | > 100 | > 100 | > 100 | > 100 | > 100 | > 100 | > 100 | > 100 | > 100
CCn1c(-c2ccccc2)cs/c1=N\C(P(=O)(O)O)P(=O)(O)O | > 100 | > 100 | > 100 | > 100 | > 100 | > 100 | > 100 | > 100 | > 100 | > 100 | > 100
CO/N=C(\C)c1ccc(Nc2nc3ccccc3c3occc23)cc1 | 30.5 | 53.1 | 24 | 31.1 | 28.1 | 31.2 | 28.3 | 34.1 | 27.6 | 29.7 | 31
BrC1=C(Br)C2(SCCS2)[C@H]2C[C@@H]1c1ccccc12 | > 100 | > 100 | > 100 | > 100 | > 100 | > 100 | > 100 | > 100 | > 100 | > 100 | > 100
Cc1c(C)c2c(c(N)c1C#N)C(=O)N(NC(=O)c1ccccc1)C2=O | > 100 | > 100 | > 100 | > 100 | > 100 | > 100 | > 100 | > 100 | > 100 | > 100 | > 100
Cc1c2n(c(=O)[nH]c1=O)C1OC(CO)C(O2)C1O (stereo unspecified) | > 100 | > 100 | > 100 |  | > 100 | > 100 |  | > 100 | > 100 | > 100 | 
COc1cccc(CCNC(=O)Cc2ccccc2CCO)c1 | > 100 | > 100 | > 100 | > 100 | > 100 | > 100 |  | > 100 | > 100 | > 100 | > 100
O=C1COc2cccnc2N1CCCCO | > 100 | > 100 | > 100 | > 100 |  | > 100 |  | > 100 | > 100 | > 100 | > 100
CCCCCCNc1n[nH]c(=O)c2c1nnn2Cc1ccccc1 | > 100 | > 100 |  | > 100 | > 100 | > 100 | > 100 | > 100 | > 100 |  | > 100
C=CCCON(C(=O)OC(C)(C)C)C(C)(C)C | > 100 | > 100 | > 100 | > 100 | > 100 | > 100 | > 100 | > 100 | > 100 | > 100 | 
